Test results from PMC6017654, “Ionic Liquid-Promoted Synthesis of Novel Chromone-Pyrimidine Coupled Derivatives, Antimicrobial Analysis, Enzyme Assay, Docking Study and Toxicity Study” (Molecules : A Journal of Synthetic Chemistry and Natural …, 2018).
≈ marks a conversion by molar mass, not a printed value.

Columns and labels:
[1] = tested on: ergosterol biosynthesis in Candida albicans (NCIM-3471); assay: Ergosterol extraction and quantitation assay (UV sterol profile); type: cell-based; conditions: C. albicans NCIM3471
Procedure: Changes in this absorption pattern are therefore indicative of interference in the synthetic pathway of ergosterol.
A single Candida albicans (NCIM-3471) colony from an overnight Sabouraud dextrose agar plate culture was used to inoculate 50 mL of Sabouraud dextrose broth for control and for various concentrations of the molecules. The cultures were incubated for 16 hours and harvested by centrifugation at 2700 rpm (856× g) for five min. The net weight of the cell pellet was determined. Three mL of 25% alcoholic potassium hydroxide solution was added to each pellet and vortex mixed for one min. Cell suspensions were transferred to sterile borosilicate glass screw-cap tubes and were incubated in an 85 °C water bath for one hour. Following incubation, the tubes were allowed to cool. Sterols were then extracted by addition of a mixture of 1 mL of sterile distilled water and 3 mL of n-heptane followed by vigorous vortex mixing for 3 min. The heptane layer was transferred to a clean borosilicate glass screw-cap tube and stored at −20 °C. Prior to analysis, 0.6 mL aliquot of sterol extract was diluted five fold in 100% ethanol and scanned spectrophotometrically between 240 nm and 300 nm with a spectrophotometer (UV-Visible Spectrophotometer 2100, Thermo Fischer Scientific, Waltham, MA, USA). The presence of ergosterol and the late sterol intermediate 24(28)-dehydroergosterol (DHE) in the extracted sample results in a characteristic four-peaked curve. The absence of detectable ergosterol in extracts was indicated by a flat line.
Sterols were extracted from cells and spectral profiles between 240 and 300 nm were determined.

Swiss albino mice = assay: In vivo acute oral toxicity study and gross behavioral study (OECD guideline No. 425)
Procedure: The in vivo acute oral toxicity and gross behavioral study results of the newly synthesized compounds 6c and 6f are as listed in Table 12 [26].
Each group, consisting of six Swiss albino mice (18–22 gm weight, overnight fasted), were kept in colony cage at 25 ± 2 °C with 55% relative humidity and 12 h of light and dark cycle. A specified dose of 100, 250, 500, 750, 1000, 1500 and 2000 mg/kg body weight of mice was administered orally as a single dose. The acute toxic symptoms and the behavioral changes produced by the test compounds were observed continuously for 4 h periods at 8th, 12th and 24th h on set of toxic symptoms and the gross behavioral changes were also recorded. These animals were maintained for further 10 days with observation made daily. The in vivo acute oral toxicity study was carried out at animal house at the Y.B. Chavan College of Pharmacy, Aurangabad IAEC approval number CPCSEA/IAEC/P’col-52/2015-16/115 [26].

DdlB from E.coli = DdlB from E.coli (Escherichia coli, UniProt P07862); assay: D-Alanine-D-alanine ligase (DdlB) enzyme inhibition, malachite green method; type: biochemical; conditions: 37 °C, 30 min incubation, 5% DMSO
Procedure: The key enzyme involved in the peptidoglycan biosynthesis is D-alanine-D-alanine ligase (Ddl), making it an important target for drug discovery. Inhibition of DdlB as an essential enzyme in either Gram-positive or Gram-negative organisms leads to the loss of cell shape and integrity followed by bacterial death. The synthesized derivatives 4(a–f) and 6(a–f) were tested for their inhibitory activity on DdlB from E.coli. The results are presented as IC50 values.
The D-Ala-adding activity of DdlB ligase was monitored by the detection of orthophosphate generated during the reaction based on the colorimetric malachite green method described by Walsh et al.. […] All the compounds were soluble in the assay mixture containing 5% DMSO. After 30 min of incubation, 100 µL Biomol reagent was added. After 5 min, absorbance was read at 650 nm. Residual activity was calculated with respect to a similar assay without inhibitor. To exclude possible non-specific (promiscuous) inhibitors, representative compounds 4(a–f) and 6(a–f) were also tested in the presence of Tween (0.003%), Triton X-114 (0.005%), and SDS (420 µM), as described by McGovern et al.. No significant differences were found when compared to measurements without detergents.

Cryptococcus neoformans = assay: In vitro antifungal activity (MIC100, CLSI/NCCLS); type: cell-based; conditions: C. neo., average of three readings, read-out: MIC 100
Procedure: (§1) The newly synthesized derivatives 4(a–f) and 6(a–f) were screened for their in vitro antifungal activity against different yeast and filamentous fungal pathogens. Minimum inhibitory concentration (MIC100) values for in vitro antifungal activity were determined by the methods recommended by National Committee for Clinical Laboratory Standards (NCCLS). Miconazole was used as standard drug. Dimethyl sulfoxide (DMSO) was used as solvent control.
(§2) In vitro antifungal activity was determined as per CLSI (formerly, NCCLS) guidelines. […] The medium yeast nitrogen base was dissolved in phosphate buffer pH 7 and it was autoclaved at 110 °C for 10 min. With each set a growth control without the antifungal agent and solvent control DMSO were included. The fungal strains were freshly sub cultured on to Sabouraud dextrose agar (SDA) and incubated at 25 °C for 72 h. The fungal cells were suspended in sterile distilled water and diluted to get 10^5 cells/mL. Further, ten microlitres of the standardized suspension was inoculated onto the control plates and the media incorporated with the antifungal agents. The inoculated plates were incubated at 25 °C for 48 h. The readings were taken at the end of 48 h and 72 h. The MIC was the lowest concentration of drug preventing growth of macroscopically visible colonies on drug containing plates when there was visible growth on the drug free control plates.

Candida glabrata = assay: In vitro antifungal activity (MIC100, CLSI/NCCLS); type: cell-based; conditions: Nakaseomyces glabratus; C. glab.; average of three readings; read-out: MIC 100
Procedure: as §1, §2

Aspergillus niger = assay: In vitro antifungal activity (MIC100, CLSI/NCCLS); type: cell-based; conditions: A. nig., average of three readings, read-out: MIC 100
Procedure: as §1, §2

Aspergillus fumigates = assay: In vitro antifungal activity (MIC100, CLSI/NCCLS); type: cell-based; conditions: A. fum., average of three readings, read-out: MIC 100
Procedure: as §1, §2

Fusarium oxysporum = assay: In vitro antifungal activity (MIC100, CLSI/NCCLS); type: cell-based; conditions: F. oxy., average of three readings, read-out: MIC 100
Procedure: as §1, §2

Candida albicans = assay: In vitro antifungal activity (MIC100, CLSI/NCCLS); type: cell-based; conditions: C. alb., average of three readings, read-out: MIC 100
Procedure: as §1, §2

[2] = tested on: HeLa (human cervical cancer cell line); assay: In vitro cytotoxicity, Sulforhodamine B (SRB) assay; type: cell-based; conditions: up to 80 µg/mL
Description: (§3) Toxicity scrutiny of synthesized compounds at the early phase of research paves the way to clinical trials and reduces the failure of potential therapeutics at later stages of clinical trials. To scrutinize the safety and selectivity of antimicrobial activity of the synthesized compounds, the compounds 6c and 6f were appraised for their toxicity against HeLa (a human cervical cancer cell line) and PC-3 (human prostate cancer cell line) by the Sulforhodamine B (SRB) assay using adriamycin as a standard drug.
(§4) The images were captured using an Eclipse Ti-S Inverted Research Microscope (Nikon, Tokyo, Japan). Image processing software used was NIS-Elements.

[3] = as above; type: cell-based, human; conditions: human, range 80 to 0.55 μg/mL
Description: as §3, §4

Structure (SMILES): COc1ccc2occ(C3NC(=S)NC(C)=C3C(=O)NN)c(=O)c2c1 (centres unmarked) [Compound 6f, 4-(6-Methoxy-4-oxo-4H-chromen-3-yl)-6-methyl-2-thioxo-1,2,3,4-tetrahydropyrimidine-5-carbohydrazide]
- ergosterol peak in UV sterol profile at the MIC value ([1]; 6f 24 µg/mL, miconazole 25 µg/mL, 281.5 nm): almost a flat peak
- ergosterol peak at 281.5 nm with increasing concentration ([1]; MIC/16 to MIC (1.5 to 24 µg/mL)): intensity of the ergosterol peak at 281.5 nm decreases
- No. of Deaths (Swiss albino mice; Swiss albino mice, single oral dose 100 to 2000 mg/kg): N
- lethal dose (Swiss albino mice; mice, oral, single dose, no mortality up to 2000 mg/kg): above 2000 mg/kg body weight
- IC50 (DdlB from E.coli): > 400 µM
- MIC (Cryptococcus neoformans): 15 µg/mL (≈ 41.6 µM)
- MIC (Candida glabrata): 25 µg/mL (≈ 69.4 µM)
- MIC (Aspergillus niger): 16 µg/mL (≈ 44.4 µM)
- MIC (Aspergillus fumigates): 33 µg/mL (≈ 91.6 µM)
- MIC (Fusarium oxysporum): 28 µg/mL (≈ 77.7 µM)
- MIC (Candida albicans): 24 µg/mL (≈ 66.6 µM)
- cell inhibition [2]: cell inhibition did not occur
- GI50 ([3]; HeLa cells, SRB assay): > 80 µg/mL
- GI50 ([3]; PC-3 cells): > 80 µg/mL
